Reference: patent US20100197628A1, “METHODS OF TREATING PSYCHIATRIC, SUBSTANCE ABUSE, AND OTHER DISORDERS USING COMBINATIONS CONTAINING OMEGA-3 FATTY ACIDS” (priority 2003, published 2010)
“Also recorded” adds a separate entry of the source. Counter-ions that a name gives are not always drawn.

How the values were obtained:
[1] = system: male Sprague-Dawley rats; assay: Forced swim test (FST): latency to become immobile and behavioral sampling; assay type: in vivo, rat; conditions: re-test (day 2), DMI 10 mg/kg, FLX 20 mg/kg; for latency to become immobile: 3 IP injections, CIT 5.0 mg/kg; for occurrences of climbing (behavioral sampling) / occurrences of immobility (behavioral sampling) / occurrences of swimming (behavioral sampling): CIT 5.0 mg/kg IP
Procedure: The behavioral effects of the combination of uridine and omega-3 fatty acids were also evaluated in rats using the forced swim test (FST). This assay identifies in rodents treatments that have antidepressant effects in humans (Porsolt et al. Nature 266:730-732 1977; Carlezon et al. Biol. Psychiatry 51:882-889, 2002). Uridine was administered using systemic injection while omega-3 fatty acids were administered by supplementation within the diet for various periods of time (3, 10, or 30 days). The effects of uridine in rats maintained on the omega-3 fatty acid-enriched diet were also evaluated to determine if these effects were additive. […] The efficacy of each treatment in the FST was evaluated using two separate scoring methods: latency to become immobile, a simple and rapid method that identifies agents with antidepressant effects ([…] et al. J Neurosci 21:7397-7403 2001), and behavioral sampling, a more complex method that differentiates antidepressant drugs according to their pharmacological mechanisms (Detke et al. Psychopharmacology 121:66-72 1995). Finally, treatments with antidepressant-like effects in the FST were evaluated for non-specific effects on activity in an open field, which might complicate interpretation of the data from the swimming studies. Rats: A total of 197 male Sprague-Dawley rats (Charles River Laboratories, Boston Mass.) were used in these studies. The rats were housed in groups of four and weighed 325-375 gm at the time of behavioral testing. Rats were maintained on a 12 h light (0700-1900 h)-12 h dark cycle with free access to food and water except during testing. Experiments were conducted in accordance with the 1996 Guide for the Care and Use of Laboratory Animals (NIH) and McLean Hospital policies. Drugs: Dosages of desipramine HCl (DMI), fluoxetine HCl (FLX), citalopram HBr (CIT), and uridine (URI) were administered in a distilled water vehicle (VEH) at a volume of 1 cc/kg. All drugs were purchased from RBI-Sigma (St. Louis, Mo.) except CIT, which was a gift of Forest Laboratories (New York, N.Y.). […] The diets were equivalent in overall fat, protein, carbohydrate, and caloric content. Forced Swim Test (FST): One hundred-sixty seven rats were used in the FST studies, which were conducted as described previously (Carlezon et al. Biol. Psychiatry 51:882-889, 2002) with minor modifications. The FST is a two-day procedure in which rats swim under conditions in which escape is not possible. On the first day, rats are placed in clear, 65 cm tall-25 cm diameter cylinders filled to 48 cm with 25° C. water. The rats initially struggle to escape from the water, but eventually they adopt a posture of immobility in which they make only the movements necessary to keep their heads above water. After 15 min of forced swimming, the rats are removed from the water, dried with towels, and placed in a warmed enclosure for 30 min. The cylinders are emptied and cleaned between rats. When the rats are re-tested 24 hours later under identical conditions in 5 min sessions, immobility is increased. Treatment with standard antidepressant drugs within the 24 hr period between the first exposure to forced swimming and re-testing can attenuate facilitated immobility, an effect correlated with antidepressant efficacy in humans (Porsolt et al. Nature 266:730-732 1977; Detke et al. Psychopharmacology 121:66-72 1995, Carlezon et al. Biol. Psychiatry 51:882-889, 2002). Rats tested with DMI, FLX, CIT, or URI received 3 separate intraperitoneal (IP) injections of drug (or VEH), at 1 hr, 19 hr, and 23 hr after the first exposure to forced swimming. This commonly used regimen is sensitive to the antidepressant-like effects of many standard agents (Porsolt et al. Nature 266:730-732 1977; Detke et al. Psychopharmacology 121:66-72 1995; Carlezon et al. Biol. Psychiatry 51:882-889, 2002). […] There were 7-12 rats per treatment condition, and separate rats were used for each treatment regimen. […]

[2] = system: children with ADHD; assay: Computerized continuous performance task (CPT), measure of attention; assay type: in vivo, human
Procedure: A new fMRI procedure (T2 relaxometry or “T2-RT”) was developed to indirectly assess blood volume in the striatum (caudate and putamen) of boys 6-12 years of age under steady-state conditions. Six healthy control boys (10.2±1.5 yr) and eleven boys diagnosed with ADHD (9.3±1.6 yr) served as subjects in the study to examine fMRI differences between unmedicated healthy controls and ADHD children on either placebo or the highest dose of methylphenidate. […] Activity and attention were evaluated in unmedicated healthy controls using the same procedure as children with ADHD, and fMRI followed within the same time frame.
(§1) Highly accurate laboratory-based measures of activity and attention were obtained by having the children perform a computerized vigilance test while an infrared motion analysis system captured and recorded movements (see Methods). […]
Assessment of Activity and Attention. […] In brief, children sat in front of a computer and were evaluated using a simple GO/NO−GO CPT in which the subject responds to visual presentation of a target and withholds response to a non-target stimuli that appear in the center of the screen at a fixed 2 second […] interval (Greenberg et al., Psychopharmacol. Bull. 23: 279-282, 1987). […]
Statistical Analyses. Differences between groups was assessed using ANCOVA with age as a covariate. […]

[3] = system: children with ADHD; assay: Infrared motion analysis of activity during the attention test; assay type: in vivo, human
Excerpt: A new fMRI procedure (T2 relaxometry or “T2-RT”) was developed to indirectly assess blood volume in the striatum (caudate and putamen) of boys 6-12 years of age under steady-state conditions. Six healthy control boys (10.2±1.5 yr) and eleven boys diagnosed with ADHD (9.3±1.6 yr) served as subjects in the study to examine fMRI differences between unmedicated healthy controls and ADHD children on either placebo or the highest dose of methylphenidate. The healthy controls were screened using structured diagnostic interview (K-SADS-E; Orvaschel, H. & Puig-Antich, J., The schedule for affective disorders and schizophrenia for school-age children-epidemiologic version (Kiddie-SADS-E), University of Pittsburgh, Pittsburgh, Pa., 1987), were free of any major psychiatric disorder, and had no more than 3 out of 9 possible symptoms of inattention or hyperactivity-impulsivity by DSM-IV criteria. Children with ADHD were included if they met criteria for ADHD on structured diagnostic interview, and had at least 6 of 9 symptoms of inattention or hyperactivity-impulsivity. Children with ADHD took part in a triple blind (parent, child, rater), randomized, placebo-controlled study of effects of methylphenidate (0, 0.5, 0.8, 1.5 mg/kg in divided dose) on activity, attention, and fMRI. […] Activity and attention were evaluated in unmedicated healthy controls using the same procedure as children with ADHD, and fMRI followed within the same time frame.
as §1
Assessment of Activity and Attention. […] In brief, children sat in front of a computer and were evaluated using a simple GO/NO−GO CPT in which the subject responds to visual presentation of a target and withholds response to a non-target stimuli that appear in the center of the screen at a fixed 2 second […] interval (Greenberg et al., Psychopharmacol. Bull. 23: 279-282, 1987). […] Three 5-minute test sessions were recorded during a 30-minute test period while an infrared motion analysis system (Qualisys, Glastonbury, Conn.) recorded the movement of small reflective markers attached to the head, shoulder, elbow, and back of the child. […] Results were analyzed using the concept of “micro-events.” A new micro-event begins when the marker moves 1.0 millimeters or more from its most recent resting location, and is defined by its position and duration. The spatial scaling exponent is a measure of the spatial complexity of the movement path, and is calculated from the logarithmic rate of information decay at progressively lower levels of resolution. […]

[4] = system: putamen, caudate and thalamus of children with ADHD; assay: T2 relaxometry fMRI (T2-RT), indirect measure of regional blood volume; assay type: in vivo, human; conditions: ongoing treatment
Excerpt: A new fMRI procedure (T2 relaxometry or “T2-RT”) was developed to indirectly assess blood volume in the striatum (caudate and putamen) of boys 6-12 years of age under steady-state conditions. Six healthy control boys (10.2±1.5 yr) and eleven boys diagnosed with ADHD (9.3±1.6 yr) served as subjects in the study to examine fMRI differences between unmedicated healthy controls and ADHD children on either placebo or the highest dose of methylphenidate. The healthy controls were screened using structured diagnostic interview (K-SADS-E; Orvaschel, H. & Puig-Antich, J., The schedule for affective disorders and schizophrenia for school-age children-epidemiologic version (Kiddie-SADS-E), University of Pittsburgh, Pittsburgh, Pa., 1987), were free of any major psychiatric disorder, and had no more than 3 out of 9 possible symptoms of inattention or hyperactivity-impulsivity by DSM-IV criteria. Children with ADHD were included if they met criteria for ADHD on structured diagnostic interview, and had at least 6 of 9 symptoms of inattention or hyperactivity-impulsivity. Children with ADHD took part in a triple blind (parent, child, rater), randomized, placebo-controlled study of effects of methylphenidate (0, 0.5, 0.8, 1.5 mg/kg in divided dose) on activity, attention, and fMRI. Children with ADHD were treated continuously for one week with placebo or a specific dose of methylphenidate and at the end of the week were tested for drug efficacy using objective measures of attention and activity and fMRI (See Methods) within 1-3 hours of their afternoon dose. The time between dose and testing was held constant for each subject throughout the four treatment conditions. Activity and attention were evaluated in unmedicated healthy controls using the same procedure as children with ADHD, and fMRI followed within the same time frame.
T2 relaxometry, a novel fMRI procedure, was used to derive steady state blood flow measures and to test for enduring medication effects. […] T2 relaxometry, like BOLD, hinges on the paramagnetic properties of deoxyhemoglobin. […]

[5] = system: depressed subjects; assay: 17-item Hamilton Depression Rating Scale (HDRS), eight weeks of treatment; assay type: in vivo, human
Procedure: In a second study, twelve depressed subjects (mean age 40) received 500 mg of an oral formulation of CDP-choline twice daily for eight weeks.

[6] = children with ADHD, methylphenidate vs placebo, P<0.05
[7] = eight weeks, CDP-choline 500 mg twice daily, fluoxetine 20 mg/day

## CNCCCN1c2ccccc2CCc2ccccc21 [DMI, desipramine HCl]
[1]; HCl
  latency to become immobile: increased latencies to become immobile
  occurrences of climbing (behavioral sampling): increased climbing; also recorded: increases in occurrences of climbing
  occurrences of immobility (behavioral sampling): reduced immobility; also recorded: decreases in occurrences of immobility
  occurrences of swimming (behavioral sampling): without affecting occurrences of swimming

## COC(=O)C(c1ccccc1)C1CCCCN1 (stereo not shown) [methylphenidate]
[2]; children with ADHD on methylphenidate (placebo 242 msec), P<0.005
  response variability (S.D.) of response latency: 149 ms
[2]; children with ADHD, methylphenidate vs placebo, one week of treatment, P<0.05
  performance accuracy on the CPT: enhancing
[3]; 5 ADHD children not objectively hyperactive on placebo, p>0.6
  increase in spatial complexity: < 8%
[3]; 6 subjects objectively hyperactive on placebo, P<0.02
  increase in spatial complexity: 52.6%
[3]; [6]
  complexity of the movement pattern: increasing
  increase in time spent immobile: 126%
[4]; P=0.08
  T2-RT in right caudate: trend-level difference
[4]; P>0.7
  T2-RT in thalamus: failed to exert significant effects
[4]; response tied to unmedicated activity state, P=0.006
  T2-RT in right and left putamen: significantly altered

## CN(C)CCCC1(c2ccc(F)cc2)OCc2cc(C#N)ccc21 (stereo not shown) [CIT, citalopram HBr]
[1]; HBr
  latency to become immobile: increased latencies to become immobile
  occurrences of immobility (behavioral sampling): reduced immobility; also recorded: decreased immobility
[1]
  occurrences of climbing (behavioral sampling): without affecting climbing
  occurrences of swimming (behavioral sampling): increased swimming

## CNCCC(Oc1ccc(C(F)(F)F)cc1)c1ccccc1 (stereo not shown) [fluoxetine, fluoxetine HCl]
[1]; listed as FLX, HCl
  latency to become immobile: increased latencies to become immobile
  occurrences of immobility (behavioral sampling): reduced immobility; also recorded: decreased immobility
[1]
  occurrences of climbing (behavioral sampling): without affecting climbing
  occurrences of swimming (behavioral sampling): increased swimming
[5]; CDP-choline 500 mg oral twice daily, fluoxetine open label 20 mg/day, p<0.0001
  mean 17-item HDRS score with eight weeks of treatment: 11±6
[5]; baseline, CDP-choline 12 subjects, fluoxetine 41 subjects
  mean 17-item HDRS score before treatment: 21±4
[5]; [7]
  complete responses (subjects/total): 17/41
  complete responses, share of subjects: 41%
